Patent US20200239398A1, “METHYLENE-CYCLOALKYLACETATE DERIVATIVES AND THEIR USE IN TREATMENT OF NEUROTROPIC CONDITIONS” (Yissum Research Development Company of The Hebrew …, priority 2018, published 2020)

Key:
PC12 cells [1] = test: PC12 cell neurotropic assay (neurite outgrowth); type: cell-based, rat; conditions: 10 μM; for Neurotropic effect (mean ± SE) Seven Days Df / Neurotropic effect (mean ± SE) Two Days Df: PC12 cells, Df = fractal dimension of neurite outgrowth; for Neurotropic effect (mean ± SE) Seven Days Df: seven days of treatment; for Neurotropic effect (mean ± SE) Two Days Df: two days of treatment; for Neurotropic effect Seven Days NGF (%) / Neurotropic effect Two Days NGF (%): relative to NGF 50 ng/ml; for inducing fast neurite outgrowth (in words): after two days of treatment
Protocol: PC12 cells were grown in T-200 flasks in high glucose (4.5 gr/L) DMEM medium supplemented with 7% FCS, 7% horse serum and 1% penicillin and streptomycin. Cells were incubated at 37° C. in a humidified incubator containing 6% CO2. All experiments were carried out in a clean room, according to ISO7 requirements (10,000 particles/m^3).
Tissue culture Falcon plates were coated with 200 μg/ml collagen type 1 and placed under UV light for 30 minutes for sterilization. Thereafter, one ml of PC12 cell suspension (5000 cells/well) was applied in 12 or 24 well plate, respectively. The cultures were grown in the incubator two days before exposure to investigated compound.
This experimental procedure contained two controls. The first consisted of untreated cells (negative control), representing the random effect: “noise signal”—the ability of cells to spontaneously grow neurite outgrowth which in seven days are of a length less than two-fold cell diameter. Also, negative controls consisted of cultures treated with 1% DMSO, solvent used to solubilize all compounds. The positive control consisted of cells treated with 50 ng/ml NGF, indicating maximal neurite outgrowth that can be achieved in this model. The experimental group consisted of PC12 cells treated with synthetic compounds. In each experiment, after two and seven days, six cultures were evaluated for neurotropic effect. These consecutive observations allow measurement of the progress of neurite outgrowth elongation and the percentage of cells with neurites.^31
In order to assess neurotropic effect, the neurite outgrowth length in each culture was quantified. For this purpose, each culture was placed under an inverted microscope and photographed by the attached camera. Each well was photographed at three to five representative areas. After acquiring the photos, they were analyzed by ImageJ, NIH software. The neurite outgrowth was estimated by fractal dimension (Df), a statistical parameter that describes the fractional space (area and length) filled by neurite outgrowth. Df ranged from 0 to 1.20. This method estimates the amount of picsel covered by neurites/cells compared to empty space per square field, and therefore plotting log (number of square boxes) vs. log (size in pixels) relationship generates a linear curve with Df representing the slope of the curve. Every photograph that was taken, was opened in a Photoshop software and a new layer was generated on it. Using a 5-pixel wide digital pencil tool, all the outgrowths were marked and the layer with the markers (outgrowth network) was saved in a 0-255 gray scale as described in FIG. 2. Then, the saved layer was opened by ImageJ NIH software. The software “skeletonized” the layer, measured the length and complexity of every outgrowth in a fractal box count and calculated the fractional dimension parameter (Df).^32
Each experiment was performed in duplicates and repeated three to four times (n=6-8). By using SPSS software, one way ANOVA was performed for the fractional dimension of each compound, in order to evaluate the neurotropic effect. In case of significance, Bonferroni post-hoc analysis was performed. The results were considered significant when p<0.05.

PC12 cells [2] = test: Cytotoxicity (cell morphology, LDH release); type: cell-based; conditions: 10 μM
[3] = target: T1, N-methyl-D-aspartate (NMDA) Glutamate Receptor 1A/2B (NMDAR (1A/2B)) (Homo sapiens, UniProt Q05586+Q13224); test: SAFETYscan NMDAR (1A/2B) Ion channel; type: cell-based; conditions: Blocker mode; reference compound; read-out: RC50 (the source's name)
T1 construct: DiscoverX (SAFETYscan contract panel)
T1 sequence (Q13224 27-1484, other chains not shown): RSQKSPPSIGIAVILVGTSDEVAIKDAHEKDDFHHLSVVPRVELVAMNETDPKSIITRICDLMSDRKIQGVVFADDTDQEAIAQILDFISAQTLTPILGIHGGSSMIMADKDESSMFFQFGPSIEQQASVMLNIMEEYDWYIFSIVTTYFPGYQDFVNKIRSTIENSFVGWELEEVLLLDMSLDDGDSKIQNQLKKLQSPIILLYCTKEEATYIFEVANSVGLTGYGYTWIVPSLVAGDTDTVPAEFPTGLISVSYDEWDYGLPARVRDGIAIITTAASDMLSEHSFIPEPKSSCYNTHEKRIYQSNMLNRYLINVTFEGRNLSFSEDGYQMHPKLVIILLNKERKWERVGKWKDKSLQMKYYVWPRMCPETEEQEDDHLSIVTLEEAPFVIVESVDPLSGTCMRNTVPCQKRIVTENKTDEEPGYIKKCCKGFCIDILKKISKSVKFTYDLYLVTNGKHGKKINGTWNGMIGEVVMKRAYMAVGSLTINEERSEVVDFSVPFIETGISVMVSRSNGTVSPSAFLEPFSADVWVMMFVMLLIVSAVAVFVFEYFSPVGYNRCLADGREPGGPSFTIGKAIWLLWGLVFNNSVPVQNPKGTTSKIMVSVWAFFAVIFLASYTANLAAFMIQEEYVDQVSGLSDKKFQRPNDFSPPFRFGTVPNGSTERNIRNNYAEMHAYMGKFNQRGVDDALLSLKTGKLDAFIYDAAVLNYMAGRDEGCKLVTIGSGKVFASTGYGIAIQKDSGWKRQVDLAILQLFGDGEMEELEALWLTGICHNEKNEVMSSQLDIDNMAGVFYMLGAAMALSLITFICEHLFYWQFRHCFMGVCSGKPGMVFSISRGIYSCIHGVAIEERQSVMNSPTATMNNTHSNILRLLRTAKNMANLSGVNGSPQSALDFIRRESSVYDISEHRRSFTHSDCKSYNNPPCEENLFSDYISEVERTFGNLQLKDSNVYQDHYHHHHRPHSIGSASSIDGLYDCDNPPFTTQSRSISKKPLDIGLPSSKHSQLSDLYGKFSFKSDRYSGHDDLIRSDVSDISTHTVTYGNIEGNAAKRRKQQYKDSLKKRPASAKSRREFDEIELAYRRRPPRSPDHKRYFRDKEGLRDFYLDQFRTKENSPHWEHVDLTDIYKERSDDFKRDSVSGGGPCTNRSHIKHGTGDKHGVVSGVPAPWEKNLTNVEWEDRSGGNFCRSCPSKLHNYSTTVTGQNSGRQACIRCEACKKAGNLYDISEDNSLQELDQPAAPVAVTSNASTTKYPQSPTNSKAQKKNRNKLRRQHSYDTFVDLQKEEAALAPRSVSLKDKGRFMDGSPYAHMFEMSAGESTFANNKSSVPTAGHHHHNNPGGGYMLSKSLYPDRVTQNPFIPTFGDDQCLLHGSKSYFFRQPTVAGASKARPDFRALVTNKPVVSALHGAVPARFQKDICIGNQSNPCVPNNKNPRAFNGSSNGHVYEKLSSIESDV

[4] = target: T2, Nicotinic acetylcholine Receptor-alpha-4 beta-2 (nAChR (a4/b2)) (Homo sapiens, UniProt P17787+P43681); test: cell-based; type: cell-based; conditions: Blocker mode; reference compound; read-out: RC50 (the source's name)
T2 construct: DiscoverX (SAFETYscan contract panel)
T2 sequence (P43681 29-627 limits assumed): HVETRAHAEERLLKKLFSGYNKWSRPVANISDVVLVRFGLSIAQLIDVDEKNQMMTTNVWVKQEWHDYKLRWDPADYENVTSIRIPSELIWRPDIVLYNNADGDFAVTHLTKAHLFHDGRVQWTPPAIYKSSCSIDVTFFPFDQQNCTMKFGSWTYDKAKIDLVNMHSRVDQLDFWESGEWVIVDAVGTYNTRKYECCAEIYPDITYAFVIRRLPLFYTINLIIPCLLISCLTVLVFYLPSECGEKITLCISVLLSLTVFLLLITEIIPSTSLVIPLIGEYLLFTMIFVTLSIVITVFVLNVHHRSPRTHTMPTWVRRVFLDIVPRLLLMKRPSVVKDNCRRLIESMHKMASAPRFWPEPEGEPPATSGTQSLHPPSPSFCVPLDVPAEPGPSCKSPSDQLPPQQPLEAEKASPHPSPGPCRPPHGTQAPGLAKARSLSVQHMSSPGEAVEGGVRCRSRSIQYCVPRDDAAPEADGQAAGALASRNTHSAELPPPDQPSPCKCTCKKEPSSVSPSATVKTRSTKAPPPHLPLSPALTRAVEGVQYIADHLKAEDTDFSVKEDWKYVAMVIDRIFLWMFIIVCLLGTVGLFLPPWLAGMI
T2 sequence (P17787 26-502): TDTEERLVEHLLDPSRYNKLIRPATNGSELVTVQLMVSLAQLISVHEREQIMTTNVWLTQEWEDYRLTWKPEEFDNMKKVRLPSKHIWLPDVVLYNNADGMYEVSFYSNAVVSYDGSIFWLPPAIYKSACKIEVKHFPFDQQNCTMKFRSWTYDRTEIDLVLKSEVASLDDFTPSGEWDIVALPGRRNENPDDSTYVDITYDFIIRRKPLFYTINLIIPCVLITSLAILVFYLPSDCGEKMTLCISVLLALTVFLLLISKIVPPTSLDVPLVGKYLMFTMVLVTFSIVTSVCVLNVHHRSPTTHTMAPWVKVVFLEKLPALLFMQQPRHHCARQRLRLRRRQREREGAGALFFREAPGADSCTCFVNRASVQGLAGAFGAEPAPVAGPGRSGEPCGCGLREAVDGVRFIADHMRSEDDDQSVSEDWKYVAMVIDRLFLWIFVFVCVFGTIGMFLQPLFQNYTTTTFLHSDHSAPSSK

[5] = target: Gamma-aminobutyric acid Receptor A (GABAA); type: cell-based; conditions: Blocker mode; reference compound; read-out: RC50 (the source's name)
[6] = test system: dorsal root ganglion (DRG) sensory neurons; test: Neurite outgrowth in dorsal root ganglion (DRG) explants; type: cell-based, mice
Protocol: To perform these experiments, about 10 dorsal root ganglia (DRGs) were excised under sterile conditions and transferred to 0.25% Type IV collagenase (Sigma-Aldrich-Merck) in Dulbecco's Modified Eagle Medium (DMEM) at 37° C. for 45 min, followed by a 20-min incubation with 0.025% trypsin in DMEM, to digest the associated connective tissue surrounding the neurons. After plating the ganglia onto collagen (50 μg/ml)/laminin mixture (5 μg/ml)-coated tissue culture wells for 24 h, DRG neurons were cultured for additional 1-7 days in fresh Neurobasal A/B27 containing either 50 ng/ml NGF (positive control), blank medium (DMSO 1%) control and HU-MCA-13. The cultures were photographed; thereafter the ganglia were immune-stained for neuronal tubulin and again photographed using a fluorescent microscope. Image analysis was performed by a researcher blinded to the experimental conditions. Neurite outgrowth distance measured in micrometers, was quantified as for PC12 cultures.

PC12 cells [7] = test: Additive neurotropic effect between HU-MCA-13 and NGF, PC12 neurite outgrowth; type: cell-based, rat
Protocol: PC12 cells were cultured in T-200 flasks in high glucose (4.5 gr/L) DMEM medium supplemented with 7% FCS, 7% horse serum and 1% penicillin and streptomycin. Cells will be maintained at 37° C. in a humidified incubator containing 6% CO2. All experiments were carried out in a GLP clean room, according to ISO 7 requirements (10,000 particles/m^3). For neurotropic experiments, tissue culture Falcon plates were coated with 200 μg/ml collagen type 1 and placed under UV light for 30 minutes for sterilization. Thereafter, one ml of PC12 cell suspension (5000 cells/well) was applied in 12 or 24 well plate, respectively. The cultures were maintained in the incubator two days before exposure to investigated compound. Each neurotropic experiment contained two controls. The first consisted of untreated cells (negative control), representing the random effect: “noise signal”—the ability of cells to spontaneously grow neurite outgrowth which in seven days are of a length less than two-fold cell diameter. Also, negative controls consisted of cultures treated with 1% DMSO, solvent used to solubilize HU-MCA-13. The positive controls represented neuronal cultures treated with 50 ng/ml NGF, indicating maximal neurite outgrowth that can be achieved in this model. The experimental group consisted of PC12 cells treated with 10 μM HU-MCA-13. In each experiment, after two and seven days, six cultures will be evaluated for neurotropic effect. These consecutive observations allow measurement of the progress of neurite outgrowth elongation and the percentage of cells with neurites (Katzir et al. A quantitative bioassay for nerve growth factor, using PC12 clones expressing different levels of trkA receptors. J Mol Neurosci. 2002; 18(3):251-64). In order to assess neurotropic effect, the neurite outgrowth length in each culture was quantified. For this purpose, each culture was placed under an inverted microscope and photographed by the attached camera. Each well was photographed at three to five representative areas. After acquiring the photos, they were analyzed by ImageJ, NIH software. The neurite outgrowth was estimated by fractal dimension (Df), a statistical parameter that describes the fractional space (area and length) filled by neurite outgrowth. Df ranged from 0 to 1.20. This method estimated the amount of picsels covered by neurites/cells compared to empty space per square field, and therefore plotting log(number of square boxes) vs. log(size in pixels) relationship generated a linear curve with Df representing the slope of the curve. Every photograph that was taken, was opened in a Photoshop software and a new layer was generated on it. Using a 5-pixel wide digital pencil tool, all the outgrowths were marked and the layer with the markers (outgrowth network) were saved in a 0-255 gray scale. Thereafter, the saved layer was opened by ImageJ NIH software.
Using an established PC12 neurotropic in vitro assay, the regenerative enhancing effect of HU-MCA-13 when applied concomitantly, together with NGF, a known neurotrophin was investigated. […] NGF alone, as positive control, at the conventional dose of 50 ng/ml enhanced neurite outgrowth to a Df value of 0.54 at 2 days and 0.4 at 7 days of treatment (FIG. 5). To verify a possible additive effect, the cultures with a mixture of low dose NGF (1 ng/ml generating 10% neurite outgrowth=Df of 0.05) and 1 μM HU-MCA-13 generating about 10-15% neurite outgrowth=Df of 0.04) were tested and found after 2 days a Df of 0.85 and after 7 days a Df of 0.38. NGF is released by hematopoietic cells during polyneuropathy inflammatory process, this finding further strength the possibility of a potential enhancement regenerative effect of this drug upon in vivo therapy.

[8] = NGF 50 ng/ml, DRG explants, 5 days

C=C(C)CC1CCCC(CC(=O)OC)C1=C (centres unmarked) [Compound 5, Methyl 2-(3-(2-methylallyl)-2-methylenecyclohexyl)acetate]
loss of activity from day two to seven (PC12 cells [1]): 50%
Neurotropic effect (mean ± SE) Seven Days Df (PC12 cells [1]): 0.20 ± 0.17
Neurotropic effect (mean ± SE) Two Days Df (PC12 cells [1]): 0.42 ± 0.01
Neurotropic effect Seven Days NGF (%) (PC12 cells [1]): 43.5%
Neurotropic effect Two Days NGF (%) (PC12 cells [1]): 91.3%
neurotropic activity (in words) (PC12 cells [1]; after seven days of treatment): significant neurotropic activity
inducing fast neurite outgrowth (in words) (PC12 cells [1]): most active

C=C1C(CC=C(C)C)CCC[C@H]1CC(=O)O (some centres unmarked) [Compound 6]
Neurotropic effect (mean ± SE) Seven Days Df (PC12 cells [1]): 0.20 ± 0.17
Neurotropic effect (mean ± SE) Two Days Df (PC12 cells [1]): 0.14 ± 0.15
Neurotropic effect Seven Days NGF (%) (PC12 cells [1]): 43.5%
Neurotropic effect Two Days NGF (%) (PC12 cells [1]): 30.4%
neurotropic activity (in words) (PC12 cells [1]; after seven days of treatment): significant neurotropic activity
inducing fast neurite outgrowth (in words) (PC12 cells [1]): most active

C=C1C(CC=C(C)C)CCCC1CC(=O)OC (centres unmarked) [Compound 7, Methyl 2-(3-(3-methylbut-2-en-1-yl)-2-methylenecyclohexyl)acetate]
Neurotropic effect (mean ± SE) Seven Days Df (PC12 cells [1]): 0.20 ± 0.17
Neurotropic effect (mean ± SE) Two Days Df (PC12 cells [1]): 0.12 ± 0.14
Neurotropic effect Seven Days NGF (%) (PC12 cells [1]): 43.5%
Neurotropic effect Two Days NGF (%) (PC12 cells [1]): 26.1%
neurotropic activity (in words) (PC12 cells [1]; after seven days of treatment): significant neurotropic activity
inducing fast neurite outgrowth (in words) (PC12 cells [1]): most active

C=C1C(C/C=C/c2ccccc2)CCC[C@H]1CC(=O)O (some centres unmarked) [Compound 8]
cytotoxicity (in words) (PC12 cells [2]): partial cytotoxic activity

C=CCC1CC(=C)C[C@@H](CC(=O)O)C1=C (some centres unmarked) [Compound 9]
Neurotropic effect (mean ± SE) Seven Days Df (PC12 cells [1]): 0.01 ± 0.01
Neurotropic effect Seven Days NGF (%) (PC12 cells [1]): 2.2%
neurotropic activity (in words) (PC12 cells [1]; PC12 cell neurotropic assay): no activity was detected

C=CCC1CC(c2ccccc2)C[C@@H](CC(=O)O)C1=C (some centres unmarked) [Compound 10]
neurotropic activity (in words) (PC12 cells [1]; PC12 cell neurotropic assay): no activity was detected

C=CCC1CC(c2ccccc2)CC(CC(=O)OC)C1=C (centres unmarked) [Compound 11, Methyl 2-(3-allyl-2-methylene-5-phenylcyclohexyl)acetate]
Neurotropic effect (mean ± SE) Seven Days Df (PC12 cells [1]): 0.01 ± 0.01
Neurotropic effect Seven Days NGF (%) (PC12 cells [1]): 2.2%
neurotropic activity (in words) (PC12 cells [1]; PC12 cell neurotropic assay): no activity was detected

C=CCC1CC(C(C)(C)C)C[C@@H](CC(=O)O)C1=C (some centres unmarked) [Compound 12]
Neurotropic effect (mean ± SE) Seven Days Df (PC12 cells [1]): 0.17 ± 0.16
Neurotropic effect Seven Days NGF (%) (PC12 cells [1]): 37.0%
neurotropic activity (in words) (PC12 cells [1]; after seven days of treatment): significant neurotropic activity

C=CCC1CN(C(=O)OCC)CC(CC(=O)OC)C1=C (centres unmarked) [Compound 15, Ethyl-3-allyl-5-(2-methoxy-2-oxoethyl)-4-methylenepiperidine-1-carboxylate]
cytotoxicity (in words) (PC12 cells [2]): partial cytotoxic activity

C=C(C)CC1CCCC(CC(=O)OC)C1=O (centres unmarked) [Compound 18, Methyl 2-(3-(2-methylallyl)-2-oxocyclohexyl)acetate]
cytotoxicity (in words) (PC12 cells [2]): partial cytotoxic activity

COC(=O)CC1CCCC(CC=C(C)C)C1=O (centres unmarked) [Compound 21, Methyl 2-(3-(3-methylbut-2-en-1-yl)-2-oxocyclohexyl)acetate]
Neurotropic effect (mean ± SE) Seven Days Df (PC12 cells [1]): 0.01 ± 0.01
Neurotropic effect Seven Days NGF (%) (PC12 cells [1]): 2.2%

C[C@]12N[C@H](Cc3ccccc31)c1ccccc12 [MK 801, reference compound]
IC50 [3]: 52.8 nM

Dihydro-AY-erythroidine [reference compound]
IC50 [4]: 707 nM

Picrotoxin [reference compound]
IC50 [5]: 5920 nM

B1: NGF: Tissue culture grade mouse β-NGF from Alomone Labs; positive control (protein, UniProt P01139 122-241, looked up)
Beta-nerve growth factor: SSTHPVFHMGEFSVCDSVSVWVGDKTTATDIKGKEVTVLAEVNINNSVFRQYFFETKCRASNPVESGCRGIDSKHWNSYCTTTHTFVKALTTDEKQAAWRFIRIDTACVCVLSRKATRRG
modifications: Beta-nerve growth factor
notes: Tissue culture grade mouse β-NGF from Alomone Labs; positive control
increase in neurite outgrowth ([6]; NGF 50 ng/ml vs blank control medium): 3-4 fold
neurite outgrowth length [6, 8]: 700 micrometer
ratio between the area covered by neurites and that covered by the DRG ganglia [6, 8]: 9
neurite outgrowth Df (PC12 cells [7]; NGF alone 50 ng/ml, 2 days): 0.54
neurite outgrowth Df (PC12 cells [7]; NGF alone 50 ng/ml, 7 days): 0.4
neurite outgrowth (PC12 cells [7]; low dose NGF 1 ng/ml): 10%
neurite outgrowth Df (PC12 cells [7]; low dose NGF 1 ng/ml): 0.05
